This is an account of results in patent EP4786487A1, “PEPTIDE” (Peptidream Inc, priority 2023, dated 2025).

The structures appear in SMILES notation. Starred links: 1 amine or outer side, 2 acyl side, 3 side chain; linkers in the order of their positions; H or OH if unused. Positions of bridges follow the written chain, without caps; N, C: chain ends. Non-standard residues stand in square brackets, D forms with d. Residues, ends and D or L forms follow the SMILES beside them. *: point of attachment. Phe(3-OCH2COOH) = N[C@@H](Cc1cccc(OCC(=O)O)c1)C(=O)O; Phe(4-COOH) = N[C@@H](Cc1ccc(C(=O)O)cc1)C(=O)O; Trp(7-aza) = N[C@@H](Cc1c[nH]c2ncccc12)C(=O)O; Piperazinyl(4-CH2COOH) = O=C(O)CN1CCN(*)CC1; Gly(N(CH2)3COOH) = O=C(O)CCCNCC(=O)O; NMe3Pal = CN[C@@H](Cc1cccnc1)C(=O)O; X1 = CCCCCCC[C@H](N[*:1])C(=O)[*:2]; NMeF = CN[C@@H](Cc1ccccc1)C(=O)O; 4Pal = N[C@@H](Cc1ccncc1)C(=O)O; hSer = N[C@@H](CCO)C(=O)O; NMeA = CN[C@@H](C)C(=O)O; Sar = CNCC(=O)O; Propyl = CCC*; X17 = CCCCC*; nBu = CCCC*

Format in all cases: cell-based
Experiment [1] addresses T1, GDF-11 (Homo sapiens, UniProt O95390).
T1 construct: purchased R&D systems 1958-GD-G8/CF
T1 sequence (O95390 299-407): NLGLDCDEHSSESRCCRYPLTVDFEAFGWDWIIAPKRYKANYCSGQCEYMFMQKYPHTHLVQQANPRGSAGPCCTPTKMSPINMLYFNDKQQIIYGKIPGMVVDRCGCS
As to the kind of experiment: Reporter gene assay for myostatin signaling in HepG2 cell line, Evaluation Procedure (1), GDF-11 inhibition. As to conditions: Method A: GDF-11 10 ng/mL; read-out: IC50 (Luciferase) GDF-11 HepG2. Put shortly:
(§1)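 IC50 derived from One-Glo luciferase luminescence after 20–24 h at 37 °C. Peptides titrated 4-fold at 0.006–100 nmol/L against myostatin or 0.12–2000 nmol/L against GDF-11 in HepG2 cells carrying a transfected CAGA12-luciferase reporter, kept in 0.1% BSA EMEM.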

Experiment [2] concerns Myostatin. Briefly: Reporter gene assay for myostatin signaling in HepG2 cell line, Evaluation Procedure (1), myostatin inhibition. As to conditions: Method A; GDF-11 IC50 versus Myostatin IC50. The method in brief:
as §1

In experiment [3] the target is T2, Myostatin (Homo sapiens, UniProt O14793).
T2 construct: active myostatin (also called mature myostatin) is a homodimer consisting of two C-terminal growth factor domains; purchased R&D systems 788-G8/CF
T2 sequence (O14793 267-375): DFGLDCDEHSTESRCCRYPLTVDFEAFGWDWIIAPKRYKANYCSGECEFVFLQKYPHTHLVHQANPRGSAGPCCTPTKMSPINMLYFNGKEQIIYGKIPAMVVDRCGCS
The description is as above. As to conditions: Method A: Myostatin 10 ng/mL; read-out: IC50 (Luciferase) Myostatin HepG2. Put shortly:
as §1

On to `CCCCCCC[C@@H]1NC(=O)[C@H](Cc2ccccc2)N(C)C(=O)[C@H](CCCNC(=N)N)NC(=O)[C@H](Cc2ccc(C(=O)O)cc2)NC(=O)[C@H](Cc2cccc(OCC(=O)O)c2)NC(=O)CN(C)C(=O)[C@H]([C@@H](C)CC)NC(=O)[C@H](Cc2ccccc2)N(C)C(=O)[C@H](Cc2ccc(O)cc2)NC(=O)[C@H](Cc2c[nH]c3ccccc23)NC(=O)[C@H](C)NC(=O)[C@H](C)NC(=O)CSC[C@H](C(=O)O)NC(=O)[C@H](Cc2cccnc2)N(C)C(=O)[C@H](C)N(C)C1=O` [Myostatin_99_v214] ({CH2CO}-AAWY[NMeF]I[Sar][Phe(3-OCH2COOH)][Phe(4-COOH)]R[NMeF][X1][NMeA][NMe3Pal][dC]-OH; thioether N-15), for which the IC50 in experiment [1] was determined as 1320 nM; in experiment [3], 6.6 nM. The Selectivity in experiment [2] is listed as 201.
The matching figures for `CCCCCCC[C@@H]1NC(=O)[C@H](Cc2ccccc2)N(C)C(=O)[C@H](CCCNC(=N)N)NC(=O)[C@H](Cc2ccc(C(=O)O)cc2)NC(=O)[C@H](Cc2cccc(OCC(=O)O)c2)NC(=O)CN(C)C(=O)[C@H]([C@@H](C)CC)NC(=O)[C@H](Cc2ccccc2)N(C)C(=O)[C@H](Cc2ccc(O)cc2)NC(=O)[C@H](Cc2c[nH]c3ccccc23)NC(=O)[C@H](C)NC(=O)[C@H](C)NC(=O)CSC[C@@H](C(=O)O)NC(=O)[C@H](Cc2ccccc2)N(C)C(=O)[C@H](C)N(C)C1=O` [Myostatin_99_v215] ({CH2CO}-AAWY[NMeF]I[Sar][Phe(3-OCH2COOH)][Phe(4-COOH)]R[NMeF][X1][NMeA][NMeF]C-OH; thioether N-15): 202 nM, 1.9 nM and 106.
The matching figures for `CCCCCCC[C@@H]1NC(=O)[C@H](Cc2ccccc2)N(C)C(=O)[C@H](CCCNC(=N)N)NC(=O)[C@H](Cc2ccc(C(=O)O)cc2)NC(=O)[C@H](Cc2cccc(OCC(=O)O)c2)NC(=O)CN(C)C(=O)[C@H]([C@@H](C)CC)NC(=O)[C@H](Cc2ccccc2)N(C)C(=O)[C@H](Cc2ccc(O)cc2)NC(=O)[C@H](Cc2c[nH]c3ccccc23)NC(=O)[C@H](C)NC(=O)[C@H](CC(N)=O)NC(=O)CSC[C@H](C(=O)O)NC(=O)[C@H](Cc2ccccc2)N(C)C(=O)[C@H](C)N(C)C1=O` [Myostatin_99_v217] ({CH2CO}-NAWY[NMeF]I[Sar][Phe(3-OCH2COOH)][Phe(4-COOH)]R[NMeF][X1][NMeA][NMeF][dC]-OH; thioether N-15): 696 nM, 3 nM and 232.
The matching figures for `CCCCCCC[C@@H]1NC(=O)[C@H](Cc2ccccc2)N(C)C(=O)[C@H](CCCNC(=N)N)NC(=O)[C@H](Cc2ccc(O)cc2)NC(=O)[C@H](Cc2cccc(OCC(=O)O)c2)NC(=O)CN(C)C(=O)[C@H]([C@@H](C)CC)NC(=O)[C@H](Cc2ccccc2)N(C)C(=O)[C@H](Cc2ccc(O)cc2)NC(=O)[C@H](Cc2c[nH]c3ncccc23)NC(=O)[C@@H](CCC(=O)O)NC(=O)[C@H](C)NC(=O)CSC[C@H](C(=O)O)NC(=O)[C@H](Cc2ccccc2)N(C)C(=O)[C@H](C)N(C)C1=O` [Myostatin_99_v219] ({CH2CO}-A[dE][Trp(7-aza)]Y[NMeF]I[Sar][Phe(3-OCH2COOH)]YR[NMeF][X1][NMeA][NMeF][dC]-OH; thioether N-15): 313 nM, 2.7 nM and 116.
As for `CCCCCCC[C@@H]1NC(=O)[C@H](Cc2ccccc2)N(C)C(=O)[C@H](CCCNC(=N)N)NC(=O)[C@H](Cc2ccc(C(=O)O)cc2)NC(=O)[C@H](Cc2cccc(OCC(=O)O)c2)NC(=O)CN(C)C(=O)[C@H]([C@@H](C)CC)NC(=O)[C@H](Cc2ccccc2)N(C)C(=O)[C@H](Cc2ccc(O)cc2)NC(=O)[C@H](Cc2c[nH]c3ccccc23)NC(=O)[C@H](C)NC(=O)[C@H](C)NC(=O)CSC[C@H](C(=O)N2CCN(CC(=O)O)CC2)NC(=O)[C@H](Cc2ccccc2)N(C)C(=O)[C@H](C)N(C)C1=O` [Myostatin_99_v221] ({CH2CO}-AAWY[NMeF]I[Sar][Phe(3-OCH2COOH)][Phe(4-COOH)]R[NMeF][X1][NMeA][NMeF][dC]-{Piperazinyl(4-CH2COOH)}; thioether N-15), the IC50 in experiment [1] is 72 nM; in experiment [3], 0.9 nM. Also, the Selectivity in experiment [2] is 80.
With `CCCCCOC[C@@H]1NC(=O)[C@H](Cc2ccccc2)N(C)C(=O)[C@H](CCCNC(=N)N)NC(=O)[C@H](Cc2ccc(C(=O)O)cc2)NC(=O)[C@H](Cc2ccncc2)NC(=O)CN(C)C(=O)[C@H]([C@@H](C)CC)NC(=O)[C@H](Cc2ccccc2)N(C)C(=O)[C@H](Cc2ccc(O)cc2)NC(=O)[C@H](Cc2c[nH]c3ccccc23)NC(=O)[C@H](C)NC(=O)CN(CCCC(=O)O)C(=O)CSC[C@H](C(=O)O)NC(=O)[C@H](Cc2ccccc2)N(C)C(=O)[C@H](C)N(C)C1=O` [Myostatin_99_v226] ({CH2CO}-[Gly(N(CH2)3COOH)]AWY[NMeF]I[Sar][4Pal][Phe(4-COOH)]R[NMeF]S(X17)[NMeA][NMeF][dC]-OH; thioether N-15), the figures for the IC50 in experiment [1] and in experiment [3] were 3990 nM and 10.2 nM, respectively. Besides, the Selectivity in experiment [2] was 391.
For `CCCCOCC[C@@H]1NC(=O)[C@H](Cc2ccccc2)N(C)C(=O)[C@H](CCCNC(=N)N)NC(=O)[C@H](Cc2ccc(C(=O)O)cc2)NC(=O)[C@H](Cc2ccncc2)NC(=O)CN(C)C(=O)[C@H]([C@@H](C)CC)NC(=O)[C@H](Cc2ccccc2)N(C)C(=O)[C@H](Cc2ccc(O)cc2)NC(=O)[C@H](Cc2c[nH]c3ccccc23)NC(=O)[C@H](C)NC(=O)CN(CCCC(=O)O)C(=O)CSC[C@H](C(=O)O)NC(=O)[C@H](Cc2ccccc2)N(C)C(=O)[C@H](C)N(C)C1=O` [Myostatin_99_v227] ({CH2CO}-[Gly(N(CH2)3COOH)]AWY[NMeF]I[Sar][4Pal][Phe(4-COOH)]R[NMeF][hSer](nBu)[NMeA][NMeF][dC]-OH; thioether N-15), in that order: 683 nM, 20.8 nM and 33.
For `CCCOCC[C@@H]1NC(=O)[C@H](Cc2ccccc2)N(C)C(=O)[C@H](CCCNC(=N)N)NC(=O)[C@H](Cc2ccc(C(=O)O)cc2)NC(=O)[C@H](Cc2ccncc2)NC(=O)CN(C)C(=O)[C@H]([C@@H](C)CC)NC(=O)[C@H](Cc2ccccc2)N(C)C(=O)[C@H](Cc2ccc(O)cc2)NC(=O)[C@H](Cc2c[nH]c3ccccc23)NC(=O)[C@H](C)NC(=O)CN(CCCC(=O)O)C(=O)CSC[C@H](C(=O)O)NC(=O)[C@H](Cc2ccccc2)N(C)C(=O)[C@H](C)N(C)C1=O` [Myostatin_99_v230] ({CH2CO}-[Gly(N(CH2)3COOH)]AWY[NMeF]I[Sar][4Pal][Phe(4-COOH)]R[NMeF][hSer](Propyl)[NMeA][NMeF][dC]-OH; thioether N-15), in that order: 8370 nM, 57.1 nM and 147.
